Laboratory results taken from patent publication US20180244653A1, “SELECTIVE ALPHA-7 NICOTINIC RECEPTOR AGONISTS AND METHODS FOR MAKING AND USING THEM” (THE REGENTS OF THE UNIVERSITY OF CALIFORNIA, priority 2015, published 2018).
“Also recorded” adds a separate entry of the source.

What was measured:
Format in all cases: in vivo
[1] = system: scopolamine-induced amnesic mice; experiment: Modified Y-maze test; settings: for Unfamiliar arm exploration / cognitive deficit, modified Y-maze vs scopolamine-treated group: i.p. 1 h before, scopolamine 1 mg/kg, doses as in the sentence; for Fold lower effective dose than PNU-282987, modified Y-maze: mouse, in vivo; for Minimum effective dose, Modified Y-maze: scopolamine induced amnesia model, ICR mice, i.p.
Method: The modified Y-maze test was performed to evaluate spatial working memory. The experiment was divided into 3 sessions; (i) IND8 at 5, 10, and 50 μmol/kg or 1.5, 2.9, and 14.7 mg/kg doses, (ii) QND8 at 5, 10, and 50 μmol/kg or 1.4, 2.7, 13.5 mg/kg doses, and (iii) IND8 and QND8 at dose of 25 μmol/kg or 7.3 and 6.8 mg/kg, respectively and PNU-282987 at […] or 3, 10 mg/kg doses.
FIG. 21 illustrates the percentage of unfamiliar arm exploration in modified Y-maze of IND8 (FIG. 21A), QND8 (FIG. 21B), and IND8, QND8, PNU-282987 (FIG. 21C). IND8, QND8, PNU-282987, vehicle (15% Tween80, SH) and tacrine (TC) were injected 1 h and scopolamine (SC) 30 min before sample phase, respectively. Each mouse was placed at the end of one arm and allowed to access 2 arms of Y-maze for 5 min in sample phase. After a 30 min period, the mouse was allowed to explore 3 arms for 5 min. The number of entries for each arm was recorded and the percentage of unfamiliar arm exploration was calculated. Data represented in means±standard errors (SE).
Male ICR mice (6-weeks of age) were housed in 5 per cage with free access to food and tap water under 12 h light and dark cycle (light on 6:00 to 18:00) in a temperature and humidity controlled room. They were acclimated in a laboratory at least 7 days prior to starting experiments. The experimental protocols were approved by the Animal Care and Use Committee of KhonKaen University, Thailand.
Tacrine hydrochloride (Sigma-Aldrich, St. Louis, Mo.), PNU-282987 hydrochloride (Alamone, Jerusalem, Israel) and test compounds were prepared as suspensions by using 15% tween 80 in distilled water as a vehicle, whereas scopolamine hydrochloride (Sigma-Aldrich, St. Louis, Mo.) and methyllycaconitine citrate (MLA) (Abcam, Cambridge, England) were prepared as a solution by dissolving with 0.9% normal saline solution (NSS). All compounds were administered by intraperitoneal (i.p.) injection in the amount of 5 mL/kg. Test compounds were injected 1 h and scopolamine was administered 30 min before the experiments, whereas MLA was injected 5 min before the test compounds.
Amnesia was induced pharmacologically in mice via scopolamine injection (single dose) for 30 min prior to start the experiments. They were divided into vehicle group: receiving 15% tween 80 and 0.9% NSS, amnesia group: receiving scopolamine 1 mg/kg, standard positive control group receiving tacrine 1 mg/kg, and test group: receiving IND8, QND8 at dose 5, 10, 25, 50 μmol/kg, or PNU-282987 3, 10 mg/kg, single dose. All mice were acclimated in an experimental room at least 30 min before the experiments.
The maze in this experiment is the same apparatus using in locomotor activity test except there is the black partition to close one of three arms. The mice were randomly separated into different treatment groups. They were injected with test compounds and scopolamine at 1 h and 30 min, respectively, before the sample phase. In this phase which one arm of Y-maze was closed by the black partition, each mouse was placed at the end of one arm and allowed to move through 2 arms for 5 min to get familiar with the two opened arms. After 30 min of resting, all arms were opened and the mouse was allowed to move freely through all 3 arms. The maze area and the partition were cleaned with 70% ethanol between each experiment to remove olfactory cues. The number of entries in each arm was counted visually if mice accessed into each arm at least 10 cm. The percentage of unfamiliar arm exploration was calculated as following equation: […]

[2] = system: scopolamine-induced amnesic mice; experiment: Water maze test; settings: i.p.; IND8 25 and 50 μmol/kg, QND8 25 μmol/kg
Method: The water maze test, a model for spatial learning and reference memory, related to function in the hippocampus, was also used as a study model in which mice locate a hidden platform after training session. Mice were trained to locate a hidden platform until a steady state measured by a shortened escape latency time was reached.
The average swimming time in a target quadrant where the platform had previously been placed was measured in the test day, day 8 (FIG. 25).
FIG. 25 illustrates the average swimming time in the target quadrant of water maze test. Data are presented in means±SE. IND8, QND8, PNU-282987, vehicle (15% Tween80, SH) and tacrine (TC) were injected 1 h and scopolamine (SC) 30 min before testing, respectively.
A black circular tank (diameter 70 cm; height 28 cm) was divided into 4 quadrants with a removable escape platform (6×7.5×14 cm) centered in a target quadrant. The tank was filled with water to 15 cm height and the platform was located 1 cm below the water surface.
Mice were trained from 5-7 days to get the steady state of escape latency. During day 1 to 5, each mouse was trained to swim from each quadrant with 1 min maximum time and allowed to stay on the platform for 10 sec. The mouse is placed on the platform for 10 s if it cannot find the hidden platform within 1 min. The escape latency time from each quadrant was measured. […] The probe test began when the escape latency time reached the steady state. The platform was removed and time spent in the target quadrant was measured. On the next day, all conditions were the same as probe test, but the platform was brought back to remind the mice of the target quadrant location. All mice were injected with test compounds 1 h and scopolamine 30 min before testing. The swimming time in the target quadrant was measured.

mice = experiment: Locomotor activity test (Y-maze); settings: all tested doses, i.p., 1 h before
Method: A black polyvinyl chloride Y-maze, which was 40 cm long, 3 cm wide at the bottom and 10 cm wide at the top, and 12 cm high in each arm, was used to study the effect of synthesized compounds on locomotor activity. Each mouse was placed at the end of one arm and was allowed to move freely in Y-maze for 8 min after 1 h injection of vehicle or test compounds. The number of entries to all arms was recorded visually if mice accessed into each arm at least 10 cm from the middle of the maze.
Figure S1. Locomotor activity testing of IND8 (A) and QND8 (B). Mice were injected vehicle or test compounds 1 h before moving freely in Y-maze for 8 min. The number of entries into 3 arms was recorded. The one-way ANOVA was used to evaluate the different result between test and vehicle groups.

c1cc2cc(-c3cn(C4CN5CCC4CC5)nn3)ccc2[nH]1 (centres unmarked) [IND8, 5-((Quinuclid-3-yl)-1H-1,2,3-triazol-4-yl)-1H-indole]
Unfamiliar arm exploration / cognitive deficit, modified Y-maze vs scopolamine-treated group [1]: reversed the cognitive deficit induced by scopolamine | Fold lower effective dose than PNU-282987, modified Y-maze [1]: seven-fold | Minimum effective dose, Modified Y-maze [1]: 5 µmol/kg | Time in target quadrant, water maze vs scopolamine-treated group [2]: significantly spent more time than amnesia group | Locomotor activity (number of arm entries) vs vehicle (mice): neither a reduction nor an increase in locomotor activity was observed; also recorded: no significant difference

O=C(N[C@H]1CN2CCC1CC2)c1ccc(Cl)cc1 [PNU-282987, reference compound]
Minimum effective dose, Modified Y-maze [1]: 33 µmol/kg

Oc1ccc(-c2cn(C3CN4CCC3CC4)nn2)cc1 (centres unmarked) [QND8, 3-(4-hydroxyphenyl-1,2,3-triazol-1-yl) quinuclidine]
Unfamiliar arm exploration / cognitive deficit, modified Y-maze vs scopolamine-treated group [1]: improved the cognitive deficit significantly only at the 2.7 mg/kg dose | Fold lower effective dose than PNU-282987, modified Y-maze [1]: four-fold | Minimum effective dose, Modified Y-maze [1]: 10 µmol/kg | Time in target quadrant, water maze vs scopolamine-treated group [2]: significantly spent more time than amnesia group | Locomotor activity (number of arm entries) vs vehicle (mice): neither a reduction nor an increase in locomotor activity was observed; also recorded: no significant difference
